Numbers after ± are expanded uncertainties.

What is called mass density is the mass of a sample divided by its volume. The viscosity is the resistance of a fluid to flow. The term speed of sound denotes the propagation velocity of pressure waves in the medium.

For data set [1] the following is noted: 101 kPa, Liquid; for viscosity: Capillary tube (Ostwald / Ubbelohde) method; for speed of sound: Sing-around technique in a fixed-path interferometer.
Data set [2] can be described thus: xn = mol fraction of the nth substance listed. The conditions noted are these: 101 kPa, Liquid, x2 = 0; for viscosity: Capillary tube (Ostwald / Ubbelohde) method; for speed of sound: Sing-around technique in a fixed-path interferometer.

For the compound `CCCCCCCCCC` [decane], the mass density in data set [1] (298.15 K) amounted to 726.806 ± 1.7 kg/m3; in data set [1] (303.15 K), 723.042 ± 1.7 kg/m3; in data set [1] (308.15 K), 719.23 ± 1.7 kg/m3. The viscosity in data set [1] (298.15 K) came out at 0.852 ± 0.015 mPa·s. Further, the speed of sound in data set [1] (298.15 K) is 1234.8 ± 3.1 m/s; in data set [1] (303.15 K) it was 1215.2 ± 3.1 m/s; in data set [1] (308.15 K), 1195.6 ± 3.1 m/s.

Regarding `CCCCCCCCCC` [decane] + CCCCCCCCO, in data set [2] (298.15 K), the viscosity worked out at 0.852 ± 0.015 mPa·s, the speed of sound amounted to 1234.8 ± 3.1 m/s and the mass density worked out at 726.806 ± 1.7 kg/m3. Further, in data set [2] (303.15 K), the speed of sound was found to be 1215.2 ± 3.1 m/s and the mass density was determined as 723.042 ± 1.7 kg/m3. In data set [2] (308.15 K), the speed of sound was found to be 1195.6 ± 3.1 m/s and the mass density came out at 719.23 ± 1.7 kg/m3.

Consider `CCCCCC` [hexane], for which the mass density was 655.072 ± 0.92 kg/m3 in data set [1] (298.15 K), 650.369 ± 0.92 kg/m3 in data set [1] (303.15 K) and 645.767 ± 0.93 kg/m3 in data set [1] (308.15 K). The viscosity in data set [1] (298.15 K) turned out to be 0.313 ± 0.007 mPa·s. Further, the speed of sound in data set [1] (298.15 K) was 1077.8 ± 1.2 m/s; in data set [1] (303.15 K) it was 1055.2 ± 1.2 m/s; in data set [1] (308.15 K), 1032.9 ± 1.1 m/s.

Turning to `CCCCCC` [hexane] + CCCCCCCCO, in data set [2] (298.15 K), the viscosity is recorded as 0.313 ± 0.007 mPa·s, the speed of sound came out at 1077.8 ± 1.2 m/s and the mass density came to 655.072 ± 0.92 kg/m3. In data set [2] (303.15 K), the speed of sound worked out at 1055.2 ± 1.2 m/s and the mass density is on record as 650.369 ± 0.92 kg/m3. Besides, in data set [2] (308.15 K), the speed of sound amounted to 1032.9 ± 1.1 m/s and the mass density turned out to be 645.767 ± 0.93 kg/m3.

Turning to `CCCCCCCCO` [octan-1-ol], in data set [1] (298.15 K), the mass density is reported as 821.813 ± 0.54 kg/m3, the viscosity stood at 7.508 ± 0.042 mPa·s and the speed of sound came out at 1348 ± 0.8 m/s. In data set [1] (303.15 K), the mass density stood at 818.796 ± 0.54 kg/m3 and the speed of sound was 1330.8 ± 0.8 m/s. Also, in data set [1] (308.15 K), the mass density came out at 815.286 ± 0.55 kg/m3 and the speed of sound came out at 1314.1 ± 0.8 m/s.

`CCCCCCCC` [octane]: in data set [1] (298.15 K), the mass density was 698.58 ± 0.77 kg/m3, the viscosity is recorded as 0.518 ± 0.007 mPa·s and the speed of sound is 1172.7 ± 0.8 m/s. Besides, in data set [1] (303.15 K), the mass density came out at 694.497 ± 0.78 kg/m3 and the speed of sound was determined as 1152.1 ± 0.8 m/s. In addition, in data set [1] (308.15 K), the mass density came out at 690.416 ± 0.78 kg/m3 and the speed of sound is recorded as 1131.7 ± 0.8 m/s.

`CCCCCCCC` [octane] + CCCCCCCCO: in data set [2] (298.15 K), the viscosity came to 0.518 ± 0.007 mPa·s, the speed of sound is on record as 1172.7 ± 0.8 m/s and the mass density is given as 698.58 ± 0.77 kg/m3. For the same compound, in data set [2] (303.15 K), the speed of sound turned out to be 1152.1 ± 0.8 m/s and the mass density is on record as 694.497 ± 0.78 kg/m3. Further, in data set [2] (308.15 K), the speed of sound is listed as 1131.7 ± 0.8 m/s and the mass density was determined as 690.416 ± 0.78 kg/m3.

The record behind these values is the NIST ThermoML archive (doi:10.1016/j.jct.2008.02.005).
